Assay results reported in patent publication US20110105608A1, “MODULATORS OF NUCLEAR RECEPTOR CO-REGULATORY PROTEIN BINDING” (NORTHEASTERN UNIVERSITY, priority 2008, published 2011).
Where “and” joins values, the source holds several entries; their conditions need not be identical. Equal entries are not always repeated. Where two headings read alike, the source gives them in different places.

What was measured:
[1] = target: T1, interaction between ERα and the LXXLL2 peptide from the coactivator GRIP1 (Homo sapiens, UniProt P03372); assay: Mammalian two hybrid assay; type: cell-based; details: FIG. 4; for Effect on the LXXLL-ER interaction: second assay, 5-40 μM
T1 construct: expressed in transfected cells
T1 sequence (P03372 1-595): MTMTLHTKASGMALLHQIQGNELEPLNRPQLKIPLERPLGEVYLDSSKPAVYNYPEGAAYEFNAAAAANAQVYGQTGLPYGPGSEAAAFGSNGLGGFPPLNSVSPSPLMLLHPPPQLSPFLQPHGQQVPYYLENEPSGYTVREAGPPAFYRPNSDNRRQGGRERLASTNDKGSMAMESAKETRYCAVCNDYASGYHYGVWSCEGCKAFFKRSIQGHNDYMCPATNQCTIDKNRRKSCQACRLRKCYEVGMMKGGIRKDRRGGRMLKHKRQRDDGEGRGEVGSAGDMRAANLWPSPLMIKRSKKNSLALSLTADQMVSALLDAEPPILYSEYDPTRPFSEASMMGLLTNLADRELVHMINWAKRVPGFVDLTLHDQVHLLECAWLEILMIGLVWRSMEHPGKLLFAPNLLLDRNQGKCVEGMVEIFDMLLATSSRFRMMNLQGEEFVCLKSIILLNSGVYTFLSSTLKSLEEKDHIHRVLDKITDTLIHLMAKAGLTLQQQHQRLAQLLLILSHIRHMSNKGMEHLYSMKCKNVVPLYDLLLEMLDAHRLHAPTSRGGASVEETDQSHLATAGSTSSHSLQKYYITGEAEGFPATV
Procedure: The Mammalian Hybrid Assay used a similar procedure as described in Chang et al., Molec. & Cellul. Biol., (1999) 19:12 8226-8239 except the compounds shown in Table 1, supra, were used instead of phage-derived peptides.
(§1) Human cervical cancer (HeLa) and hepatoma (HepG2) cells were cultured in minimum essential medium (Life Technologies, Inc.) supplemented with 10% fetal bovine serum (HyClone), 0.1 mM nonessential amino acids, and 1 mM sodium pyruvate (Life Technologies, Inc.) and maintained in a humidified 37° C. incubator with 5% CO2. For transient transfections, cells were split into 24-well plates 24 h before transfection. Lipofectin (Life Technologies, Inc.)-mediated transfection has been described in detail previously (27). A DNA-Lipofectin mixture containing a total of 3,000 ng of plasmid in each of triplicate samples was incubated with cells for 3 to 5 h, and transfection was stopped by replacing the transfection mix with fresh medium (minimal essential medium without phenol red) containing 10% charcoal-stripped serum. Receptor ligands were added to the cells 14 to 16 h before the assay. Luciferase and (3-galactosidase activities were measured. In mammalian two-hybrid assays, for a typical triplicate of transfection, 2,000 ng of 5×Gal4Luc3 reporter plasmid, 400 ng of receptor-VP16 fusion, 400 ng of pM (Gal4 DBD)-peptide fusion constructs, and 200 ng of normalization plasmid pCMVβgal were used. For ER transcription disruption assays, 1,600 ng of 3 XERE-TATA-Luc reporter, 200 ng of pCMVβgal, 400 ng of either pRST7ERα, pRST7ERβ, or other receptor mutant constructs, and 0 to 800 ng of pM-peptide fusion plasmids were used. The parent pM vector (Gal4DBD without peptide fusion) was used in these experiments to balance the amount of input DNA in transfections. All transfections were performed at least three times.
The mammalian two hybrid assay assessed whether the compounds disrupt the interaction between ERα and an LXXLL peptide derived from an ER coactivator (GRIP1). OH-tam is an ERα antagonist and was used as a positive control.
(§2) A second assay with another group of compounds was performed to determine the proper dose for use in cell culture. Compounds were used at concentrations between 5-40 μM. The mammalian two hybrid assay was used to examine the interaction between ERα and the LXXLL2 peptide from the coactivator GRIP1. #82 and OH-tam were used as controls.

cells = assay: Toxicity to cells seen in the mammalian two hybrid dose-finding assay; type: cell-based, Human; details: FIG. 4; 5-40 μM in cell culture
Procedure: as §1, §2
AW78 was also effective. […] AW77 was very toxic to cells at the high concentrations tested.

full-length ER alpha = target: T2, full-length ER alpha (Homo sapiens, UniProt P03372); assay: Cell-based luciferase reporter gene assay (2ERE Luc) in HEC-1 cells; details: * = very small dynamic range compared to positive control
T2 construct: 100 ng of full-length ER alpha expression vector; expressed in transfected cells; host or cells: HEC-1 (human endometrial cancer) cells
T2 sequence (P03372 1-595): T1 sequence (P03372 1-595)
Excerpt: (§3) The protocols for both the time-resolved fluorescence resonance energy transfer (TR-FRET) assay and the cell-based reporter gene assay can be found in Parent, et al. (2008) J. Med. Chem. 51(20):6512-30. A 15-mer SRC1-Box II peptide and a published guanylhydrazone CBI (Lafrate et al., (2008) Bioorg. Med. Chem. 2008:16(23)) were used as positive controls in the TR-FRET and reporter gene assays, respectively.
Human endometrial cancer (HEC-1) cells were maintained in culture and transfected in 24 well plates. HBSS (50 μL/well), Holo-transferrin (Sigma T1408) (20 μL/well), and lipofectin (Invitrogen no. 18292-011) (5 μL/well) were incubated together at RT for 5 min. A DNA mixture containing 200 ng of pCMVβ-galactosidase as an internal control, 500 ng of the estrogen responsive reporter gene plasmid 2ERE Luc, and 100 ng of full-length ER alpha expression vector with 75 μL of HBSS per well was added to the first mixture and allowed to incubate for 20 min at RT. After changing the cell media to Opti-MEM (350 μL/well), 150 μL of the transfection mixture was added to each well. The cells were incubated at 37° C. in a 5% CO2 containing incubator for 6 h before the medium was replaced with fresh medium containing 5% charcoal-dextran-treated calf serum and the desired concentrations of ligands. Luciferase reporter gene activity was assayed 24 h after ligand addition.
In the initial screen, compounds were assayed in a dose-response format at concentrations ranging from 20 μM to 0.6 μM; […]. Upon validation of antagonistic activity, mechanism of action was examined by repeating the compound titration in the presence of both 10^-7 and 10^-9 M E2 with an expectation that changing the concentration of E2 100-fold would not change the IC50 of true coactivator binding inhibitors. These assays was also repeated to confirm results. The positive control is a guanyl hydrazone.

[2] = target: T3, purified full-length human ERα (Homo sapiens, UniProt P03372); assay: Estrogen receptor relative binding affinity assay, competitive radiometric, [3H]estradiol tracer; details: RBA of estradiol set to 100%, 18-24 h at 0° C.
T3 construct: purified full-length human ERα and ERβ were purchased from PanVera/Invitrogen; purchased PanVera/Invitrogen (Carlsbad, Calif.)
T3 sequence (P03372 1-595): T1 sequence (P03372 1-595)
Procedure: (§4) Relative binding affinity assays were run to determine whether the compounds of this disclosure are traditional ligands that compete with estradiol. […]; purified full-length human ERα and ERβ were purchased from PanVera/Invitrogen (Carlsbad, Calif.). Incubations were conducted for 18-24 h at 0° C. Hydroxyapatite (BioRad, Hercules, Calif.) was used to absorb the receptor-ligand complexes, and free ligand was washed away. The binding affinities are expressed as relative binding affinity (RBA) values with the RBA of estradiol set to 100%. […]

[3] = target: T4, purified full-length human ERβ (Homo sapiens, UniProt Q92731); assay: as above; details: RBA of estradiol set to 100%, 18-24 h at 0° C.
T4 construct: purified full-length human ERα and ERβ were purchased from PanVera/Invitrogen; purchased PanVera/Invitrogen (Carlsbad, Calif.)
Procedure: as §4

[4] = target: T5, endogenous ERα in MCF7 cells (Homo sapiens, UniProt P03372); assay: RBA assay, competition with 3H-estradiol in MCF7 cells; type: binding; details: 1 nM 3H-estradiol
T5 construct: the endogenous ERα in MCF7 cells; endogenous in cells; host or cells: MCF7 breast cancer cells
T5 sequence (P03372 1-595): T1 sequence (P03372 1-595)
Procedure: The RBA assay was performed to examine the ability of the compounds to compete for the binding of 1 nM of 3H-estradiol to the endogenous ERα in MCF7 cells.

ERα-417 / SRC-3-NRD = target: T6, ERα-417 / SRC-3-NRD (Homo sapiens, UniProt P03372, C381S/C530S); assay: In vitro coactivator binding inhibitor TR-FRET CBI assay (displacement of SRC3); details: * = very small dynamic range compared to positive control
T6 sequence (P03372 304-554 C381S/C530S limits assumed): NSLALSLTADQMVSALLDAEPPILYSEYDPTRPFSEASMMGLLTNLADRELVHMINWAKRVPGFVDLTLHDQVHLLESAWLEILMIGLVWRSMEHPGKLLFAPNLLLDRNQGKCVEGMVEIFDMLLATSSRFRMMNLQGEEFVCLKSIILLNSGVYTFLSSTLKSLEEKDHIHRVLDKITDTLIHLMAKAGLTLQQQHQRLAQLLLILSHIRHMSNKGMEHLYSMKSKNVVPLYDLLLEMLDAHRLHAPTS
Excerpt: as §3
Purified ERα-417, labeled site-specifically with maleimide-biotin (Quanta BioDesign) and SRC-3-NRD, labeled nonspecifically through cysteine residues with iodoacetamide-fluorescein (Invitrogen), were used in the TR-FRET assays. […]. In a second 96-well Nunc polypropylene plate (Nalge Nunc International, Rochester, N.Y.), a 0.02 M solution of each coactivator binding inhibitor was serially diluted in a 1:10 fashion into DMF. Each concentration of coactivator binding inhibitor or vehicle was then diluted 1:10 into TR-FRET buffer, and 10 μL of this solution was added to the stock […] solution in the 96-well plate. After a 20 min incubation, 5 μL of 200 nM fluorescein-SRC-3-NRD was added to each well. This mixture was allowed to incubate for 1 h at RT in the dark. TR-FRET was measured using an excitation filter at 340/10 nm and emission filters for terbium and fluorescein at 495/20 and 520/25 nm, respectively. […].
The results are shown in FIGS. 1A and 1b and show the displacement of the SRC3. The peptide control has an IC50 of about 1 uM.

[5] = HEC-1 cells, in the presence of estradiol, read-out: Reporter Gene IC50
[6] = estradiol 1 μM, read-out: TR-FRET IC50
[7] = repeat run, read-out: TR-FRET Repeat
[8] = repeat run, read-out: Reporter Gene IC50 (μM) - repeat

T4 sequence (Q92731 whole entry): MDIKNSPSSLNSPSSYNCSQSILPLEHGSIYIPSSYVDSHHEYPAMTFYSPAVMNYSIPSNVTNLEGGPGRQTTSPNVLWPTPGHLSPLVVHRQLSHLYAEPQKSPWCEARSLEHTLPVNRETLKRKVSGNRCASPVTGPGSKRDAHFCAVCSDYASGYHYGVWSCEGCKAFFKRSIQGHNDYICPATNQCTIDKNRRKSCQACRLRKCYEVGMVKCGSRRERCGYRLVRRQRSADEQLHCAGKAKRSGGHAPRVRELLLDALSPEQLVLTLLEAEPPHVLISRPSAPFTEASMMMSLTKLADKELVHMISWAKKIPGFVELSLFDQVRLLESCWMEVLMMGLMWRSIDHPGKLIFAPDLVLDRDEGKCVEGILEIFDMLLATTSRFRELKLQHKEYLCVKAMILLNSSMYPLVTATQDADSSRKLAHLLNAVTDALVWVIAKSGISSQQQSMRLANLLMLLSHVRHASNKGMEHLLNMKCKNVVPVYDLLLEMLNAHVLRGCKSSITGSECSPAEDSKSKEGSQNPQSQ

CCOC(=O)COc1ccc(-c2ccc(O)c(C(C)(C)C)c2)cc1C(C)(C)C [AW-73]
Effect on the LXXLL-ER interaction [1]: induced LXXLL-ER interaction

CCOC(=O)COc1ccc(-c2ccc(O)c(C(C)CC)c2)cc1C(C)CC (stereo not drawn) [AW-78]
Effect on the LXXLL-ER interaction [1]: effective

CCOC(=O)COc1ccc(-c2ccc(OCCN(C)C)c(C(C)CC)c2)cc1C(C)CC (stereo not drawn) [AW-79]
Effect on the LXXLL-ER interaction [1]: induced LXXLL-ER interaction
Toxicity to cells (cells): toxic at a high dose

CN(C)CCOc1ccc(-c2ccc(OCC(=O)O)c(C(C)(C)C)c2)cc1C(C)(C)C [AW-82]
IC50 (full-length ER alpha; [5]): 6 µM
ERα RBA ([2]; listed as AW-III-82-56): 0.055% and 0.038% and 0.049 ± 0.016%
ERβ RBA ([3]; listed as AW-III-82-56): 0.018% and 0.017% and 0.018 ± 0.001%
Competition for the binding of 3H-estradiol [4]: competed

CCOC(=O)COc1ccc(-c2ccc(O)cc2)cc1 [AW-84]
Effect on the LXXLL-ER interaction [1]: induced LXXLL-ER interaction

CCC(C)c1cc(-c2ccc(OCC(=O)O)c(C(C)CC)c2)ccc1OCCN(C)C (stereo not drawn) [AW-87]
IC50 (ERα-417 / SRC-3-NRD; [6]): 87 µM
IC50 (ERα-417 / SRC-3-NRD; [7]): 227 µM
IC50 (full-length ER alpha; [5]): 1.8 µM
IC50 (full-length ER alpha; [8]): 6 µM
ERα RBA [2]: ~0.001%
ERβ RBA [3]: ~0.001%

CCOC(=O)COc1ccc(-c2ccc(O)c(C(C)C)c2)cc1C(C)C [PW-74]
Concentration at which the ERα-LXXLL2 interaction is inhibited ([1]; tested at 5-40 μM): about 40 μM
Toxicity to cells (cells): no significant toxicity

CCOC(=O)COc1ccc(-c2ccc(OCCN(C)C)c(C(C)C)c2)cc1C(C)C [PW-76]
Effect on the LXXLL-ER interaction [1]: induced LXXLL-ER interaction

CCOC(=O)COc1ccc(-c2ccc(O)c(Cc3ccccc3)c2)cc1Cc1ccccc1 [PW-77]
Toxicity to cells (cells): very toxic

CCOC(=O)COc1ccc(-c2ccc(OCCN(C)C)c(Cc3ccccc3)c2)cc1Cc1ccccc1 [PW-78]
Effect on the LXXLL-ER interaction [1]: induced LXXLL-ER interaction

CC(C)c1cc(-c2ccc(OCC(=O)O)c(C(C)C)c2)ccc1OCCN(C)C [PW-80]
IC50 (ERα-417 / SRC-3-NRD; [6]): 55 µM
IC50 (ERα-417 / SRC-3-NRD; [7]): 583 µM
IC50 (full-length ER alpha; [5]): 21 µM
ERα RBA [2]: <0.001%
ERβ RBA [3]: <0.001%

CN(C)CCOc1ccc(-c2ccc(OCC(=O)O)c(Cc3ccccc3)c2)cc1Cc1ccccc1 [PW-81]
IC50 (ERα-417 / SRC-3-NRD; [6]): 163 µM
IC50 (ERα-417 / SRC-3-NRD; [7]): 1100 µM
IC50 (full-length ER alpha; [5]): 13 µM
ERα RBA [2]: <0.001%
ERβ RBA [3]: ~0.001%
Competition for the binding of 3H-estradiol [4]: did not compete

CCOC(=O)COc1ccc(-c2ccc(OCCN(C)C)cc2)cc1 [PW-82]
Effect on the LXXLL-ER interaction [1]: induced LXXLL-ER interaction

CN(C)CCOc1ccc(-c2ccc(OCC(=O)O)cc2)cc1 [PW-83]
IC50 (ERα-417 / SRC-3-NRD; [6]): 205 µM
IC50 (ERα-417 / SRC-3-NRD; [7]): 2050 µM
IC50 (full-length ER alpha; [5]): 5.8 µM
IC50 (full-length ER alpha; [8]): 18 µM
ERα RBA [2]: <0.001%
ERβ RBA [3]: <0.001%
Competition for the binding of 3H-estradiol [4]: competed
